Source: paper PMC6627489, “Metal-Biosurfactant Complexes Characterization: Binding, Self-Assembly and Interaction with Bovine Serum Albumin” (International Journal of Molecular Sciences, 2019)
Non-standard residues stand in square brackets, D forms with d. No end group written: not given here.

Assays:
[1] = Surface tension measurements (du Noüy ring), CMC determination; type: physicochemical; settings: du Noüy ring tensiometry, 10 mM Hepes buffer pH 7.4, 25 °C, metal ions 0.1 mM where present, triplicate
Method: For the pure surfactin in the Hepes buffer without divalent counterions, the critical micelle concentration (CMC) value was 0.045 mM. Regarding the effect of divalent cations, Ca^2+ decreased the CMC value of surfactin-C15 more than the other cations. Compared with the surfactin-C15 solution without metal ions, the CMC of Ca^2+-surfactin decreased from 0.045 mM to 0.017 mM. The addition of 0.1 mM of Cu^2+, Mg^2+ and Zn^2+ to surfactin-C15 reduced the CMCs to 0.033 mM, 0.036 mM and 0.038 mM, respectively. All the tested metal ions led to reductions of the surface tension of surfactin-C15 at the CMC (γcmc), being the highest reductions obtained with Cu^2+ and Ca^2+ (from 28.4 mN·m^−1 up to 24.5 and 25.1 mN·m^−1, respectively). The peptide ring of surfactin adopts a “horsesaddle” structure in solution, with the two charged residues forming a “claw”, which is a potential binding site for divalent cations.
Figure 3 Surface tension profiles of surfactin and metal-surfactin complexes in Hepes buffer (pH 7.4) at 25 °C. The values represent the mean of triplicates ± SD.
The surface tension (γ) measurements were performed at room temperature (25 °C) according to the du Noüy’s ring method using a KRÜSS K20 Tensiometer (KRÜSS GmbH, Hamburg, Germany). […] The surface tension data were analyzed using the Origin software provided with the equipment to obtain the CMC values.

[2] = Micelle size by dynamic light scattering (DLS); type: physicochemical; settings: 10 mM Hepes pH 7.4, 25 °C
Source text: For example, it is known that the addition of metal ions decreases the CMC of surfactin. This is probably related with two important competing forces during the micellization process. Electrostatic interactions, which are responsible for the repulsion of hydrophilic groups of the lipopeptide inhibit the formation of micelles. On the other hand, hydrophobic interactions are responsible for initiation of micellization through exclusion of fatty acid chains from the aqueous environment. The presence of divalent cations additionally supports the self-assembly process. […] In the case of the Cu^2+-surfactin system, Vmic^PM6 is twice lower than in the case of the free lipopeptide. Such big differences influence the aggregation number. Generally, Nagg decreases after binding of cations. The experimental micelle volumes and hydrodynamic radii with their theoretically calculated counterparts and aggregation numbers are shown in Table 1. The experimental (RH^DLS) and theoretically calculated (RH^PM6) hydrodynamic radii of surfactin-C15 were 2.46 nm and 2.40 nm, respectively. Addition of Cu^2+, Zn^2+, Mg^2+ and Ca^2+ reduces the size of the microstructures. In this study, we observed the largest modifications of surfactin-C15 conformation due to the binding of Cu^2+; in that case RH^DLS and RH^PM6 were 1.82 nm and 1.80 nm, respectively. […]

[3] = target: bovine serum albumin (BSA) (Bos taurus, UniProt P02769); experiment: Fluorescence quenching of BSA (Stern-Volmer, binding constant, Van't Hoff); settings: for kq, biomolecular quenching rate constant / KSV, Stern-Volmer quenching constant: BSA 15 µM; for kq, biomolecular quenching rate constant: from KSV with τ0 about 5 ns; for KSV, Stern-Volmer quenching constant: excitation 280 nm; for ΔG of binding to BSA: ΔG=ΔH−TΔS
Chain of bovine serum albumin (BSA) (P02769 25-607): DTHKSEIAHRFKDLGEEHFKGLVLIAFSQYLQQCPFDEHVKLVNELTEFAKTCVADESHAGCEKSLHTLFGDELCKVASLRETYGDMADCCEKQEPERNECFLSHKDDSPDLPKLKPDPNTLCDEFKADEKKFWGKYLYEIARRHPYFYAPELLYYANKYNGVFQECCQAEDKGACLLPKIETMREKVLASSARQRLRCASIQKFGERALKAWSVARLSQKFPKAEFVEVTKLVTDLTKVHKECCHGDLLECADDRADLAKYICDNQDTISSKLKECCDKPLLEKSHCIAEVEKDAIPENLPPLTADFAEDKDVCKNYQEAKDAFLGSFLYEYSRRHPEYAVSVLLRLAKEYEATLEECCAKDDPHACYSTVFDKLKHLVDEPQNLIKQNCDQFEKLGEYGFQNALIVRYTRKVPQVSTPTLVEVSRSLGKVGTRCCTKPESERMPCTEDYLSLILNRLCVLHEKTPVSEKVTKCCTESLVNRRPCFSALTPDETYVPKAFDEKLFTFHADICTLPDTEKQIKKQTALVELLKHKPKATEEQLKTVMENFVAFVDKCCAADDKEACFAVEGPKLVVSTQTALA
Source text: Fluorescence spectroscopy is a valuable tool for studying ligand-protein interactions. BSA contains two tryptophan residues, Trp134 and Trp213, which are located in sub-domain IB and sub-domain IIA, respectively. The maximum emission wavelength of BSA was found at 348 nm, and the intensity decreased regularly upon increasing the concentration of surfactin and metal-surfactin complexes. This interaction takes place adjacent to the Trp in BSA and changes the polarity around the fluorophore. This phenomenon is ascribed to the formation of surfactin/BSA and metal-surfactin/BSA complexes.
Figure 4 Fluorescence emission spectra of bovine serum albumin (BSA) with different concentrations of Cu^2+-surfactin (a), Zn^2+-surfactin (b), Mg^2+-surfactin (c), Ca^2+-surfactin (d) and surfactin (e). Conditions: BSA: 15 µM; metal-lipopeptide (a–g): 0, 10, 20, 50, 70, 100 and 120 µM; pH = 7.4; T =25 °C.
Fluorescence quenching can occur through dynamic and static mechanisms. Both dynamic and static quenching require molecular contact between the fluorophore and the quencher. The Stern–Volmer quenching (KSV) values decrease with an increase in temperature for static quenching, but the reverse effect is observed for dynamic quenching. Quenching parameters were calculated from the Stern–Volmer equation [34]:(1) F0/F=1+KSV[Q]=1+kqτ0[Q] where F0 and F are the fluorescence intensities in the absence and presence of surfactin or metal-surfactin complexes, respectively; KSV is the Stern–Volmer quenching constant; [Q] is the concentration of surfactin or metal-surfactin complexes; kq is the biomolecular quenching rate constant; and τ0 is the lifetime of the fluorophore. The fluorescence lifetime of BSA is about 5 ns. The KSV values obtained from the plot of [Q] versus F0/F (shown in Figure 5) were in the range from 6.696 × 10^3 to 7.787 × 10^3 M^−1 corresponding to the surfactin and metal-surfactin complexes.
For the static quenching interaction, the binding constant (Kb) and the number of binding sites (n) can be determined by the following equation:(2) log[(F0−F)/F]=logKb+nlog[Q] where F0 and F are the fluorescence intensities in the absence and presence of surfactin or metal-surfactin complexes, respectively, and [Q] is the concentration of surfactin or metal-surfactin complexes. Binding constants obtained from the plot of log [Q] versus log [(F0−F)/F] (Figure 6) corresponding to surfactin and metal-surfactin complexes ranged from 0.746 × 10^4 to 1.315 × 10^4 M^−1. […] Regarding the binding constants (Kb), surfactin has values higher than all the tested metal-surfactin complexes. […] The above results are similar to those reported for metal-amphisin/BSA [27].
Thermodynamic parameters for a binding interaction can be used as major evidence for the nature of intermolecular forces. There are four types of interaction forces, which could play a role in ligand binding to proteins: Van der Waals forces, hydrophobic forces, electrostatic interactions and hydrogen bonds. Thermodynamic parameters relying on temperatures were analyzed to characterize the acting force between surfactin and metal-surfactin complexes with BSA. To obtain such information, the thermodynamic parameters were calculated from the Van’t Hoff relation:(3) lnK=−ΔH^0/RT+ΔS^0/R (4) ΔG^0=ΔH^0−TΔS^0=−RTlnK where K is the binding constant, R is the gas constant and T is the experimental temperature. ΔH denotes the enthalpy change and ΔS denotes the entropy change of the binding process. The ΔH and ΔS values were calculated from the slope and intercept of the Van’t Hoff plot (Figure S2), respectively. The negative sign for ΔG means that the interaction process is spontaneous. […] This observation is supported by the docking results.
The fluorescence quenching spectra were obtained with a Varian Cary eclipse fluorescence spectrophotometer. […]

[4] = 25 °C, pH 7.4, from plot of log[(F0−F)/F] versus log[Q]
[5] = Van't Hoff plot over 25, 30, 37 °C

critical micelle concentration (CMC) ([1]; surfactin-C15 0.003-0.12 mM): 0.045 mM | surface tension at the CMC (γcmc) [1]: 28.4 mN·m^−1 | RH^(DLS), hydrodynamic radius of micelles ([2]; DLS, 173° backscatter, mean of 9 replicates ± SD): 2.46 ± 0.03 nm | Vmic^(DLS), micelle volume ([2]; Vmic(DLS)=4/3·π·(RH(DLS))^3, from DLS radius): 62.36 nm^3 | Kb, binding constant with BSA [3, 4]: 13150 M⁻¹ | n, number of binding sites on BSA [3, 4]: 1.07 | kq, biomolecular quenching rate constant ([3]; T 25 °C, pH 7.4): 1.339e+12 M⁻¹ s⁻¹ | KSV, Stern-Volmer quenching constant ([3]; T 25 °C, pH 7.4, quencher 0-120 µM): 6696 M⁻¹ | ΔG of binding to BSA ([3]; T 25 °C): -5.22 kcal/mol | KSV, Stern-Volmer quenching constant ([3]; T 30 °C, pH 7.4): 4926 M⁻¹ | kq, biomolecular quenching rate constant ([3]; T 30 °C, pH 7.4): 9.852e+11 M⁻¹ s⁻¹ | ΔG of binding to BSA ([3]; T 30 °C): -5.112 kcal/mol | KSV, Stern-Volmer quenching constant ([3]; T 37 °C, pH 7.4): 3147 M⁻¹ | kq, biomolecular quenching rate constant ([3]; T 37 °C, pH 7.4): 6.294e+11 M⁻¹ s⁻¹ | ΔG of binding to BSA ([3]; T 37 °C): -4.964 kcal/mol | ΔH of binding to BSA [3, 5]: -11.57 kcal/mol | ΔS of binding to BSA [3, 5]: −89.20 J·mol^−1·K^−1
Substance: EL[dL]VD[dL]L (also: lariat or depsi (positions not given here)) [Surfactin, surfactin-C15, cyclic lipopeptide biosurfactant from Bacillus subtilis #309; heptapeptide closed to a lactone ring by a C15 β-hydroxyl fatty acid]
